Several values for one entry are separate records, joined by “and”; a condition that tells them apart may be missing. Equal entries are not always repeated.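 Results reflect a 48-hour exposure of cells in 96-well plates to compound at five concentrations. At the GI50, growth is halved. The concentration for full growth arrest is given as TGI.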
How the values were obtained:
Test in all cases: DTP human tumour cell line panel, 48 h
A549 NSCLC = tested on: A549 NSCLC
DU-145 prostate = tested on: DU-145 prostate
HCT-116 colon = tested on: HCT-116 colon
HL-60(TB) leukemia = tested on: HL-60(TB) leukemia
IGROV1 ovarian = tested on: IGROV1 ovarian
LOX IMVI melanoma = tested on: LOX IMVI melanoma
MALME-3M melanoma = tested on: MALME-3M melanoma
MCF7 breast = tested on: MCF7 breast
RXF 393 renal = tested on: RXF 393 renal
SF-268 CNS = tested on: SF-268 CNS

Row | Structure (SMILES) | GI50 (A549 NSCLC) | TGI (A549 NSCLC) | GI50 (DU-145 prostate) | TGI (DU-145 prostate) | GI50 (HCT-116 colon) | TGI (HCT-116 colon) | GI50 (HL-60(TB) leukemia) | TGI (HL-60(TB) leukemia) | GI50 (IGROV1 ovarian) | TGI (IGROV1 ovarian) | GI50 (LOX IMVI melanoma) | TGI (LOX IMVI melanoma) | GI50 (MALME-3M melanoma) | TGI (MALME-3M melanoma) | GI50 (MCF7 breast) | TGI (MCF7 breast) | GI50 (RXF 393 renal) | TGI (RXF 393 renal) | GI50 (SF-268 CNS) | TGI (SF-268 CNS)
1 | CC(C)Cc1ccc(C(C)C(=O)NCc2ccc(Cn3c(=O)sn(CCCI)c3=O)cc2)cc1 (stereo not given) | 1.39 µM | 3.12 µM | 0.861 µM | 2.12 µM | 0.134 µM | 0.393 µM | 0.775 µM | > 22.7 µM | 0.453 µM | 1.38 µM | 0.181 µM | 0.393 µM | 1.41 µM | 2.8 µM | 0.397 µM | 2.03 µM | 0.326 µM | 1.33 µM | 1.46 µM | 2.95 µM
2 | COc1cc(/C=C/C(=O)c2c(-c3ccc(F)cc3)nc3sc(C)nn23)cc(OC)c1OC | 2.53 µM | 8.63 µM | 2.91 µM | 10.4 µM | 1.64 µM | 3.07 µM | 2.44 µM | 6.17 µM | 2.69 µM | 6.71 µM | 1.76 µM | 3.52 µM | 4.26 µM | 16.9 µM | 3.03 µM | 16.5 µM | 2.11 µM | 6.66 µM | 2.74 µM | 8.96 µM
3 | NC(=O)c1cc(Br)ccc1NC(=O)/C=C/c1ccccc1 | 2.39 µM | > 100 µM | 2.3 µM | > 100 µM | 1.24 µM | > 100 µM | 0.876 µM | 4.11 µM | 2.35 µM | > 100 µM | 10.6 µM | > 100 µM | 11.6 µM | > 100 µM | 0.757 µM | > 100 µM | 1.15 µM | 5.9 µM | 2.85 µM | > 39.4 µM
4 | Cc1ccc(OCCOCCOCCOCCOCCOc2ccc(C)n(O)c2=S)c(=S)n1O | 0.0741 µM | > 100 µM | 0.124 µM | > 100 µM | 0.0302 µM | 27.5 µM | 0.0441 µM | 0.638 µM | 0.0372 µM | > 72.5 µM | 0.054 µM | 21.8 µM | 0.109 µM | > 34.6 µM | 0.0254 µM | > 69.7 µM | 0.327 µM | 17.1 µM | 0.0693 µM | > 100 µM
5 | Cc1ccccc1C(C(=O)NC1CCCCC1)N(C(=O)CNc1ccc(C#N)cc1)c1cccc(F)c1 (stereo not given) | 44 µM | > 100 µM | 64.4 µM | > 100 µM | 13.6 µM | > 100 µM | > 70.5 µM | > 100 µM | 25 µM | > 100 µM | 44.9 µM | > 100 µM | 15.7 µM | > 91.3 µM | 49.8 µM | > 100 µM | 1.84 µM | 5.6 µM | 16.6 µM | > 100 µM
6 | O=C1c2c(Cl)c(Cl)c(Cl)c(Cl)c2C(=O)C2(Cl)CC=CCC12Cl (stereo not given) | 4.28 µM | 16.3 µM | 1.93 µM | 3.36 µM | 1.76 µM | 3.32 µM | 1.9 µM | 5.04 µM | 1.81 µM | 3.86 µM | 1.21 µM | 2.56 µM | 2.03 µM | 4.16 µM | 1.58 µM | 3.55 µM | 1.63 µM | 3.01 µM | 1.76 µM | 3.2 µM
7 | COc1cc(CCC(=O)NC[C@@H](O)c2ccccc2)ccc1O | > 100 µM | > 100 µM | > 100 µM | > 100 µM | > 100 µM | > 100 µM | > 100 µM | > 100 µM | > 100 µM | > 100 µM | > 100 µM | > 100 µM | > 100 µM | > 100 µM | > 100 µM | > 100 µM | > 100 µM | > 100 µM | > 100 µM | > 100 µM
8 | CN(C)CCS(=O)(=O)Nc1cc(-c2ccc3ncc(C#N)c(Nc4ccc(F)c(Cl)c4)c3c2)cnc1Cl | 1.14 µM | 4.79 µM | 0.293 µM | 2.11 µM | 0.214 µM | 0.69 µM | 0.0708 µM | 0.684 µM | 0.0777 µM | 0.287 µM | 0.117 µM | 0.284 µM | 0.0788 µM | 0.469 µM | 0.106 µM | 1.39 µM | 0.0953 µM | 0.348 µM | 0.122 µM | 0.692 µM
9 | CNC(=O)c1cccc(C#Cc2cncnc2Nc2ccc(OCc3cccc(F)c3)c(Cl)c2)c1 | 3.85 µM | 8.9 µM | 3.57 µM | 8.96 µM | 5.11 µM | 13.6 µM | > 25 µM | > 25 µM | 4.66 µM | > 25 µM | 5.77 µM | > 17 µM | 9.31 µM | 24.6 µM | 4.61 µM | 12.5 µM | 2.91 µM | 11.7 µM | 4.54 µM | 12.9 µM
10 | C=CC(=O)N1CC[C@H](n2nc(C#Cc3cc(OC)cc(OC)c3)c3c(N)ncnc32)C1 | 9.78 µM | > 100 µM | 7.56 µM | > 100 µM | 6.04 µM | > 100 µM | 6.23 µM | 70.4 µM | 2.88 µM | > 100 µM | 5.72 µM | > 100 µM | 15.6 µM | > 100 µM | 3.78 µM | > 100 µM | 1.06 µM | 4.48 µM | 4.19 µM | > 100 µM
11 | COc1cc2nc3cc([N+](=O)[O-])ccc3c(NCCNCC(C)O)c2cc1OC (stereo not given) | 1.43 µM | 5.13 µM | 0.445 µM | 2.2 µM | 0.358 µM | 1.75 µM | 2.52 µM | 6.66 µM | 0.495 µM | 2.26 µM | 0.768 µM | 2.51 µM | 0.785 µM | 2.25 µM | 0.332 µM | 1.57 µM | 0.641 µM | 2.34 µM | 0.469 µM | 2.46 µM
12 | Cn1c(=O)c(Oc2ccc(F)cc2F)cc2cnc(NC3CCOCC3)nc21 | > 25 µM | > 25 µM | > 25 µM | > 25 µM | > 25 µM | > 25 µM | > 25 µM | > 25 µM | > 25 µM | > 25 µM | > 25 µM | > 25 µM | > 25 µM | > 25 µM | > 25 µM | > 25 µM | 24.3 µM | > 25 µM | > 25 µM | > 25 µM
13 | O=C1CC(CC(OCc2ccccc2)C(OCc2ccccc2)C(COCc2ccccc2)OCc2ccccc2)CC(=O)N1 (stereo not given) | – | > 100 µM | > 100 µM and 27.1 µM | > 100 µM | – | > 100 µM and 34.2 µM | – | > 100 µM and 25.4 µM | > 100 µM and 17.2 µM | > 100 µM and 33.7 µM | > 100 µM and 10.7 µM | > 100 µM and 22.5 µM | > 100 µM and 15.5 µM | > 100 µM and 32.4 µM | – | > 100 µM and 31.4 µM | 24.5 µM and 2.72 µM | > 100 µM and 15 µM | > 100 µM and 11.2 µM | > 100 µM and 65.3 µM
14 | CC1(C)CCC(C)(C)c2cc(NC(=O)c3ccc(C(=O)O)cc3)ccc21 | – | > 100 µM | – | > 100 µM | – | 55.7 µM | – | > 100 µM | – | > 75.6 µM | – | 48.3 µM | – | 60.1 µM | – | > 83.2 µM | – | > 79.9 µM | – | > 100 µM
15 | CN(C)Cc1c(C(=O)NCCOc2ccc(C(=O)NO)cc2)oc2ccccc12 | 0.299 µM | 1.98 µM | 0.225 µM | > 33.6 µM | 0.0705 µM | 0.502 µM | 0.303 µM | 2.19 µM | 0.438 µM | 3.6 µM | 0.289 µM | 1.11 µM | 0.0709 µM | 36.2 µM | 0.261 µM | – | 0.197 µM | 0.643 µM | 0.464 µM | 6.02 µM
16 | CCC1(c2ccc(N)cc2)CCC(=O)NC1=O (stereo not given) | – | > 5000 µM | – | > 5000 µM | – | > 5000 µM | – | 3630 µM | – | > 4850 µM | – | > 3970 µM | – | > 4860 µM | – | > 5000 µM | – | > 3970 µM | – | > 5000 µM
17 | Cn1cc(C2=C(c3cn(CCCCCO)c4ccccc34)C(=O)NC2=O)c2ccccc21 | 6.19 µM | 24 µM | 8.83 µM | > 25 µM | 4.67 µM | > 25 µM | 4.08 µM | 11.5 µM | 8.04 µM | 17.9 µM | 4.99 µM | > 19.4 µM | 6.9 µM | 16.3 µM | 3.56 µM | > 22.5 µM | 3.51 µM | 9.61 µM | 6.34 µM | 19.1 µM
18 | Nc1nn(C(=O)Nc2c(F)cccc2F)c2ccccc12 | 48.5 µM | > 100 µM | 62.3 µM | > 100 µM | 34.8 µM | > 100 µM | 33.2 µM | > 100 µM | 7.7 µM | > 100 µM | 49.3 µM | > 100 µM | > 100 µM | > 100 µM | 60 µM | > 100 µM | 20.2 µM | > 100 µM | 36.2 µM | > 100 µM
19 | Cc1[nH]nc2ncc(C(=O)N3CCC[C@H]3c3ccc(Cl)cc3)cc12 | > 100 µM | > 100 µM | > 100 µM | > 100 µM | 33.1 µM | > 100 µM | 32.6 µM | 90.7 µM | 66.1 µM | > 100 µM | 47.2 µM | > 100 µM | > 100 µM | > 100 µM | 41.6 µM | > 100 µM | 39.5 µM | > 100 µM | > 100 µM | > 100 µM

— PubChem BioAssay (NCI)
